Results from paper PMC7658267, “Effects of CYP46A1 Inhibition on Long-Term-Depression in Hippocampal Slices ex vivo and 24S-Hydroxycholesterol Levels in Mice in vivo” (Frontiers in Molecular Neuroscience, 2020).
Read-outs that look alike come from different tables or passages of the source.

Key:
Test in all cases: biochemical
Human 5-HT2B = molecular target: T1, Human 5-HT2B (Homo sapiens, UniProt P41595); set-up: CEREP off-target binding panel, per cent inhibition at 10 uM, n = 2
T1 construct: gene HTR2B

Human A1 = molecular target: T2, Human A1 (Homo sapiens, UniProt P30542); set-up: CEREP off-target binding panel, per cent inhibition at 10 uM, n = 2
T2 construct: gene ADORA1

Human A2A = molecular target: T3, Human A2A (Homo sapiens, UniProt P29274); set-up: CEREP off-target binding panel, per cent inhibition at 10 uM, n = 2
T3 construct: gene ADORA2A

Human AT1 = molecular target: T4, Human AT1 (Homo sapiens, UniProt P30556); set-up: CEREP off-target binding panel, per cent inhibition at 10 uM, n = 2
T4 construct: gene AGTR1

Human CB1 = molecular target: T5, Human CB1 (Homo sapiens, UniProt P21554); set-up: CEREP off-target binding panel, per cent inhibition at 10 uM, n = 2
T5 construct: gene CNR1

Human CXCR2 = Human CXCR2 (Homo sapiens, UniProt P25025); set-up: CEREP off-target binding panel, per cent inhibition at 10 uM, n = 2
Human D1 = molecular target: T6, Human D1 (Homo sapiens, UniProt P21728); set-up: CEREP off-target binding panel, per cent inhibition at 10 uM, n = 2
T6 construct: gene DRD1

Human DOP = molecular target: T7, Human DOP (Homo sapiens, UniProt P41143); set-up: CEREP off-target binding panel, per cent inhibition at 10 uM, n = 2
T7 construct: gene OPRD1

Human EP4 = molecular target: T8, Human EP4 (Homo sapiens, UniProt P35408); set-up: CEREP off-target binding panel, per cent inhibition at 10 uM, n = 2
T8 construct: gene PTGER4

Human M3 = molecular target: T9, Human M3 (Homo sapiens, UniProt P20309); set-up: CEREP off-target binding panel, per cent inhibition at 10 uM, n = 2
T9 construct: gene CHRM3

Human NOP = molecular target: T10, Human NOP (Homo sapiens, UniProt P41146); set-up: CEREP off-target binding panel, per cent inhibition at 10 uM, n = 2
T10 construct: gene OPRL1

Human NTS1 = molecular target: T11, Human NTS1 (Homo sapiens, UniProt P30989); set-up: CEREP off-target binding panel, per cent inhibition at 10 uM, n = 2
T11 construct: gene NTSR1

Human V1a = molecular target: T12, Human V1a (Homo sapiens, UniProt P37288); set-up: CEREP off-target binding panel, per cent inhibition at 10 uM, n = 2
T12 construct: gene AVPR1A

Human Y1 = molecular target: T13, Human Y1 (Homo sapiens, UniProt P25929); set-up: CEREP off-target binding panel, per cent inhibition at 10 uM, n = 2
T13 construct: gene NPY1R

Human Y2 = molecular target: T14, Human Y2 (Homo sapiens, UniProt P49146); set-up: CEREP off-target binding panel, per cent inhibition at 10 uM, n = 2
T14 construct: gene NPY2R

Human Eta = molecular target: T15, Human Eta (Homo sapiens, UniProt P25101); set-up: CEREP off-target binding panel, per cent inhibition at 10 uM, n = 2
T15 construct: gene EDNRA

Human 5-HT transporter = molecular target: T16, Human 5-HT transporter (Homo sapiens, UniProt P31645); set-up: CEREP off-target binding panel, per cent inhibition at 10 uM, n = 2
T16 construct: gene SLC6A4

[1] = molecular target: T17, Human norepinephrine transporter (Homo sapiens, UniProt P23975); set-up: CEREP off-target binding panel, per cent inhibition at 10 uM, n = 2
T17 construct: gene SLC6A2

Human B2 = molecular target: T18, Human B2 (Homo sapiens, UniProt P30411); set-up: CEREP off-target binding panel, per cent inhibition at 10 uM, n = 2
T18 construct: gene BDKRB2

[2] = molecular target: T19, Human dopamine transporter (Homo sapiens, UniProt Q01959); set-up: CEREP off-target binding panel, per cent inhibition at 10 uM, n = 2
T19 construct: gene SLC6A3

CYP1A2 = CYP1A2 (Homo sapiens, UniProt P05177); set-up: CYP off-target inhibition panel
CYP2C8 = CYP2C8 (Homo sapiens, UniProt P10632); set-up: CYP off-target inhibition panel
CYP2C9 = CYP2C9 (Homo sapiens, UniProt P11712); set-up: CYP off-target inhibition panel
CYP2C19 = CYP2C19 (Homo sapiens, UniProt P33261); set-up: CYP off-target inhibition panel
CCK1 = molecular target: T20, CCK1 (Homo sapiens, UniProt P32238); set-up: CEREP radioligand binding panel, percent inhibition of specific binding
T20 construct: gene CCKAR

GAL2 = molecular target: T21, GAL2 (Homo sapiens, UniProt O43603); set-up: CEREP radioligand binding panel, percent inhibition of specific binding
T21 construct: gene GALR2

MT1 = molecular target: T22, MT1 (Homo sapiens, UniProt P48039); set-up: CEREP radioligand binding panel, percent inhibition of specific binding
T22 construct: gene MTNR1A
T22 sequence (P48039 whole entry): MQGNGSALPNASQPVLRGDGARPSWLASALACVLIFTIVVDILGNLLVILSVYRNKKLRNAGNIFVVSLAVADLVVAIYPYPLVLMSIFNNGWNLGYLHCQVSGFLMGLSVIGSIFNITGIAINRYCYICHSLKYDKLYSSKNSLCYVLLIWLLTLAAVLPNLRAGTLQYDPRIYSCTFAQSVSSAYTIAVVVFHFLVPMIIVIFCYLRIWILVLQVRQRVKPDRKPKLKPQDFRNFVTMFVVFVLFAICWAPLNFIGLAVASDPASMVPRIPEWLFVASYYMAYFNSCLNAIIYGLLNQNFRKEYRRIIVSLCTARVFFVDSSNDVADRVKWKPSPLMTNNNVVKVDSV

T4 sequence (P30556 whole entry): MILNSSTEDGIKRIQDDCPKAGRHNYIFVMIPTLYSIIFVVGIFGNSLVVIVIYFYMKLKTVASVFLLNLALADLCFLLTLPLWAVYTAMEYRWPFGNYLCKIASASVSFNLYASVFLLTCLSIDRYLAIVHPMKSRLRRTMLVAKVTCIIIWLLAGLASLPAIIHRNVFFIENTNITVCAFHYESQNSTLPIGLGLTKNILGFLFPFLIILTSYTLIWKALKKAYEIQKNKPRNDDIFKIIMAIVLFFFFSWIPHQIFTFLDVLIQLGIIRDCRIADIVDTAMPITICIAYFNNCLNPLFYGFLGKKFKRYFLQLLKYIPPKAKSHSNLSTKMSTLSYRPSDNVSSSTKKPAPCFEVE
T18 sequence (P30411 whole entry): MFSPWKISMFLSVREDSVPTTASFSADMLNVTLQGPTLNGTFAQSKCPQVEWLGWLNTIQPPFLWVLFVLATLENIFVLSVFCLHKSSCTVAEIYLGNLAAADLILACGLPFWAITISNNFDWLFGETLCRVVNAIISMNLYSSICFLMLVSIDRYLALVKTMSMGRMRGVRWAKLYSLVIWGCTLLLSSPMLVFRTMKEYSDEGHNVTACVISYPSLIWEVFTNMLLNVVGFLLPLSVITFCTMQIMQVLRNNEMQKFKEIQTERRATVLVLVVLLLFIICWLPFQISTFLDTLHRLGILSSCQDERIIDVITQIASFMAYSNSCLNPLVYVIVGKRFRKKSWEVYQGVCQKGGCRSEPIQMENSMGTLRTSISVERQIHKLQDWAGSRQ
T21 sequence (O43603 whole entry): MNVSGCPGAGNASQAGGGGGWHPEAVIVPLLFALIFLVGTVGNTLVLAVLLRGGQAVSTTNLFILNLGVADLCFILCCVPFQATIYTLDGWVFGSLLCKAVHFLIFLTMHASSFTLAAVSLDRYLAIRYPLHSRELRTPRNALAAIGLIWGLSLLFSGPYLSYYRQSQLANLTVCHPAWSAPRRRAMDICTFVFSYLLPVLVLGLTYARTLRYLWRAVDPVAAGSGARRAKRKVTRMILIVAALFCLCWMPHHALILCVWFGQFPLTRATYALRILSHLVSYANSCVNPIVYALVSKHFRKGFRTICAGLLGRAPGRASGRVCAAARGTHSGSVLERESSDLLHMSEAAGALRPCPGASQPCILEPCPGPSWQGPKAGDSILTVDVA
T7 sequence (P41143 whole entry): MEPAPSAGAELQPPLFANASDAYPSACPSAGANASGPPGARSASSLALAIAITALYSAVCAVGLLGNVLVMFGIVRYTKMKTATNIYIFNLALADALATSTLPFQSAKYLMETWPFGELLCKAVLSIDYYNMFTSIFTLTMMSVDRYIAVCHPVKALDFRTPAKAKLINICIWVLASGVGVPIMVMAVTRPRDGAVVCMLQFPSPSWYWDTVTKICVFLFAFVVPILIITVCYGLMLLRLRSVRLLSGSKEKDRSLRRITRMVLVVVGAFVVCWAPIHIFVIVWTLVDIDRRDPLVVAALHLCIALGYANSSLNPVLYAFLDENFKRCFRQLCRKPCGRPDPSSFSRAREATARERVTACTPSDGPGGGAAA
T2 sequence (P30542 whole entry): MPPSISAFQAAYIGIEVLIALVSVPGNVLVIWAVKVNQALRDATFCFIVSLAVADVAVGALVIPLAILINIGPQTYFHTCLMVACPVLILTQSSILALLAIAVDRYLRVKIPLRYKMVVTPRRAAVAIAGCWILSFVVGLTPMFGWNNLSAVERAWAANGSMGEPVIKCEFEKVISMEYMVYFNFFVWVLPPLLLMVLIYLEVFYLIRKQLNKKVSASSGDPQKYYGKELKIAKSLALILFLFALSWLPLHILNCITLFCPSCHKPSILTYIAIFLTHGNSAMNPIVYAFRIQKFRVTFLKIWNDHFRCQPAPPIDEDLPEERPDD
CYP2C8, sequence (P10632 whole entry): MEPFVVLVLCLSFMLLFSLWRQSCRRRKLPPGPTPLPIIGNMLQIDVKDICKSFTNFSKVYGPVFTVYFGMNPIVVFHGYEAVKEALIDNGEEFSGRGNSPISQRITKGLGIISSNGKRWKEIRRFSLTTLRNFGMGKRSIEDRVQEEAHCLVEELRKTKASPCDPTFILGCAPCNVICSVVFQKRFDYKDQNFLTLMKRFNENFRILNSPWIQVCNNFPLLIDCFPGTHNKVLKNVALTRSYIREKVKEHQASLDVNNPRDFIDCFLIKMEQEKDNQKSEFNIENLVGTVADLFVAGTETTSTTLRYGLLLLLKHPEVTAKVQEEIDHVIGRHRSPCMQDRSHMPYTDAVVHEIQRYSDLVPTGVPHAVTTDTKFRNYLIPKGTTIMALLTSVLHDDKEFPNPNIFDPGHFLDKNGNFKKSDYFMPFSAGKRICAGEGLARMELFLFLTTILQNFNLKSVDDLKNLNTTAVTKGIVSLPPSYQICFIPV
CYP2C9, sequence (P11712 whole entry): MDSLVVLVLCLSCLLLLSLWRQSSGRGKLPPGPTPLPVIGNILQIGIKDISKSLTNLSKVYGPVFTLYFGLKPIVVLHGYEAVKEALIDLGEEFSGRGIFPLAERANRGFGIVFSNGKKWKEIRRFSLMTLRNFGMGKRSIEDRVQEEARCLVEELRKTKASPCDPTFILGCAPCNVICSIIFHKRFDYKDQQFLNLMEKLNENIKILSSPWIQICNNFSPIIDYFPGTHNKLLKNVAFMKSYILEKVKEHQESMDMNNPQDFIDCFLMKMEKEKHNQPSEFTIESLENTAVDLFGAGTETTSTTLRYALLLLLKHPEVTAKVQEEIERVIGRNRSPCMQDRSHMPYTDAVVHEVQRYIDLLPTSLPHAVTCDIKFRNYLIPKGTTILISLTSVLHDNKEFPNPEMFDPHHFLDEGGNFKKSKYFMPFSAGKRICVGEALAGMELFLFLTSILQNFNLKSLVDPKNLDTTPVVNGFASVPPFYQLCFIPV
T10 sequence (P41146 whole entry): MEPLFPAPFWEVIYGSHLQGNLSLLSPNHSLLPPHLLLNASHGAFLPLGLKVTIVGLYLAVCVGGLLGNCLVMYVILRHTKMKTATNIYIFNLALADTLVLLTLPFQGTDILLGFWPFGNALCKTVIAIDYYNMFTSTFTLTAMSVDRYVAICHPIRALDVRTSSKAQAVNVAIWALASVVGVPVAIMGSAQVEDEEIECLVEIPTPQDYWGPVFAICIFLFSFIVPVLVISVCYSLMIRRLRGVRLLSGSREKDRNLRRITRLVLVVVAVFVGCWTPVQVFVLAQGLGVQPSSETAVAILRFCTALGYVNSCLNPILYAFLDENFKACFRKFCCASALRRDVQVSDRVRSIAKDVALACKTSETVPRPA
T15 sequence (P25101 whole entry): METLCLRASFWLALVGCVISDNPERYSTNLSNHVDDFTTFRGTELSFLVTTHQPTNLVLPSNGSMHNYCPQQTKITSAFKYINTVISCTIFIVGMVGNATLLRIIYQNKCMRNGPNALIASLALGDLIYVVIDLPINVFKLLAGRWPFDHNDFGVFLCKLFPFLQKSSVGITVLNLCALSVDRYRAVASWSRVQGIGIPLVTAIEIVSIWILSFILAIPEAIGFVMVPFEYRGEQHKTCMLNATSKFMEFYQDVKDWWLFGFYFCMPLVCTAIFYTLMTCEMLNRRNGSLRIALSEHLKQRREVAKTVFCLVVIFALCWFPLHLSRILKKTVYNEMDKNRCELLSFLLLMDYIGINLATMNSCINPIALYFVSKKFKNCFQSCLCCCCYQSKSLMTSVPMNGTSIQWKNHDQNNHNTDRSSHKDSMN
Human CXCR2, sequence (P25025 whole entry): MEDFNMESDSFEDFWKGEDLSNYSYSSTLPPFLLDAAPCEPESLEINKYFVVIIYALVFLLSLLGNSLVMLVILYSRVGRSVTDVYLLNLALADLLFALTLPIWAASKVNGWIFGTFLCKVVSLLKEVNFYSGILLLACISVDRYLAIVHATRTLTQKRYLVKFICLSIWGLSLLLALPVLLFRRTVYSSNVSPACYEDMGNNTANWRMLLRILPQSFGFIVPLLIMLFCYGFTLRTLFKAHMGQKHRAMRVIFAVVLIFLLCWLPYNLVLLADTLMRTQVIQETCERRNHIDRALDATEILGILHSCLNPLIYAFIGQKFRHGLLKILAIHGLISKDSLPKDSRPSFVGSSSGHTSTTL
T6 sequence (P21728 whole entry): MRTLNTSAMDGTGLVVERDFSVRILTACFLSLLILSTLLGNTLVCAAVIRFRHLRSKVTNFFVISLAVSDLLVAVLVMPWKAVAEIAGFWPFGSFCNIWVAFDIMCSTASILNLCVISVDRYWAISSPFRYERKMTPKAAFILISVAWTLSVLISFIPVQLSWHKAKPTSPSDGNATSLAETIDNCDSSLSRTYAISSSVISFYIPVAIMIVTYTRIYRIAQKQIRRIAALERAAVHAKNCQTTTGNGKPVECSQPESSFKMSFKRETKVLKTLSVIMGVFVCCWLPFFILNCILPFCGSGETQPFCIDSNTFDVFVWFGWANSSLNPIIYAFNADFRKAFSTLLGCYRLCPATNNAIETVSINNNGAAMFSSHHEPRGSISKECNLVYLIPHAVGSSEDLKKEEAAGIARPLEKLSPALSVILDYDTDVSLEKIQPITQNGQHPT

SMILES	inhibition at 10 µM (Human 5-HT2B)	inhibition at 10 µM (Human A1)	inhibition at 10 µM (Human A2A)	inhibition at 10 µM (Human AT1)	inhibition at 10 µM (Human CB1)	inhibition at 10 µM (Human CXCR2)	inhibition at 10 µM (Human D1)	inhibition at 10 µM (Human DOP)	inhibition at 10 µM (Human EP4)	inhibition at 10 µM (Human M3)	inhibition at 10 µM (Human NOP)	inhibition at 10 µM (Human NTS1)	inhibition at 10 µM (Human V1a)	inhibition at 10 µM (Human Y1)	inhibition at 10 µM (Human Y2)	inhibition at 10 µM (Human Eta)	inhibition at 10 µM (Human 5-HT transporter)	inhibition at 10 µM [1]	inhibition at 10 µM (Human B2)	inhibition at 10 µM [2]	also measured
O=C(c1cccnc1-c1ccncn1)N1CCC(O)(Cc2ccc(F)cc2)CC1 [compound 2, (4-(4-fluorobenzyl)-4-hydroxypiperidin-1-yl)(2-(pyrimidin-4-yl)pyridin-3-yl)methanone]	-2.4%	12.2%	-2.6%	-3.2%	-9.2%	-1.5%	-5.3%	-5.8%	1.8%	7.3%	0.6%	-12.2%	2.8%	-16.3%	6.8%	-35.5%	0.1%	-3.6%	8.4%	13.8%	IC50 (CYP1A2; read-out: compound 2): > 50 µM; IC50 (CYP2C8; read-out: compound 2): > 50 µM; IC50 (CYP2C9; read-out: compound 2): > 50 µM; IC50 (CYP2C19; read-out: compound 2): > 50 µM; inhibition at 10 µM (CCK1): -4.7%; inhibition at 10 µM (GAL2): 0%; inhibition at 10 µM (MT1): 8.3%
O=C(c1cnc2c(-c3cnco3)cc(C(F)(F)F)cn12)N1C2CCC1COC2 [compound 1, (3-oxa-8-azabicyclo[3.2.1]octan-8-yl)(8-(oxazol-5-yl)-6-(trifluoromethyl)imidazo[1,2-a]pyridin-3-yl)methanone]	-2.8%	32%	1.1%	-3.7%	-34.7%	-11.3%	2.4%	-6.2%	-22.4%	-9.1%	1.4%	-9.7%	-7.4%	-2.9%	-3.7%	-25.8%	1.2%	-14.5%	6.9%	2.1%	IC50 (CYP1A2): 6.29 µM; IC50 (CYP2C8): > 50 µM; IC50 (CYP2C9): > 50 µM; IC50 (CYP2C19): > 50 µM; inhibition at 10 µM (CCK1): 7.1%; inhibition at 10 µM (GAL2): -7.2%; inhibition at 10 µM (MT1): 1.7%
